Reference: US20110124523A1, “High Throughput Method for Detecting Apoptosis of Embryonic Stages of Metazoan Helminthic Parasites” (INSTITUTE OF LIFE SCIENCES, priority 2009, published 2011)
“And” between values parts separate entries of the source, which are not always exact repeats. Equal entries are not always repeated.

Tests used:
[1] = system: embryonic stages of S. digitata; experiment: Intra cellular expression of CED-3 protein, flow cytometry; format: cell-based, Setaria digitata; details: 24 hr
Experimental: Adult female filarial worms Setaria digitata were collected from the peritoneum of cattle, slaughtered at a nearby abattoir in sterile Hanks Balanced Salt Solution (HBSS) medium (Sigma H 2387-1L) and transported to the laboratory in a sterile container. The medium containing 1% glucose (Sigma G 7528), Penicillin 100 units/ml, Streptomycin 100 μg/ml (Sigma P 4333). And Amphotericin-B 0.25 μg/ml (Sigma A 2942) was buffered with NaHCO3 (Sigma S 5761). About 5 to 7 worms were taken in a petridish, washed three times in medium, dissected into small pieces in 10 ml of medium under sterile conditions and incubated at 37° C. for 30 minutes to allow the release of embryonic stages (eggs and microfilariae) into the medium. The embryonic stages were harvested into sterile 15 ml. centrifuge tubes and washed three times by centrifuging at 300 g for 10 minutes each with medium and the final pellet was suspended in 1 ml. of RPMI-1640 medium (Sigma R 8005) supplemented with 10% FBS (Sigma F 2442) The number of embryonic stages of S. digitata in the above preparation were counted using light microscope, and the suspension was taken in RPMI-1640 medium containing 10% FBS at 1×10^5 embryonic stages/ml. One ml. each was dispensed into individual wells of a 24 well tissue culture plate. One set of wells was taken as untreated control containing only medium with 10% FBS. […] Motility of the Mf was scored under an inverted microscope. After appropriate treatment and incubation, each set of the cultured embryonic stages of S. digitata were harvested from the 24 well tissue culture plate separately in 15 ml. sterile centrifuge tubes, washed with PBS twice and stained as per requirement following manufacturer's instructions as described below. This was followed by two times washing with PBS and final suspension of the stained embryonic stages was taken in 0.5 ml of sheath fluid (BD Biosciences 342003) before their acquisition in the flow cytometer (BD FACS Calibur, Becten and Dickinson, USA). Analysis was performed on 10,000-acquired events depicted as Dot Plots and Histogram Plots using Cellquest Pro soft ware. All plots were representative of at least 3 experiments. The distinctly clustered populations obtained consistently in the Dot plots for the intra uterine embryonic stages of S. digitata (FIG. 1 a) were gated for Mfs (R-1) and eggs (R-2 and R-3) and analyzed for different assays for apoptosis as described below. After in vitro culture for 24 hours with apoptosis inducing reagents the embryonic stages were harvested in 15 ml, sterile centrifuge tubes and fixed for 60 minutes at 0° C. in 1% paraformaldehyde (Sigma P 6148) in PBS. The suspension was washed first with PBS and then with 1× permeabilisation buffer (eBioscience 00-8333-56) and finally resuspended in 100 μl of 1× permeabilisation buffer at 1×10^5 embryonic stages per ml. The intra cellular expression of CED-3 was scored by incubation of the fixed and permeabilised embryonic stages with primary goat antibodies—anti CED-3 (Santacruz sc-9192) followed by Probing with PE conjugated secondary anti goat IgG-PE (Santacruz sc-3747) antibodies. Incubation of both primary and secondary antibodies (both 1/100 diluted) was done successively in 1× permeabilisation buffer (e Bioscience 00-8333-56) for 1 hr and 45 minutes respectively. The suspension of stained embryonic stages was then washed with PBS twice and finally reading was taken by flow cytometry.

[2] = system: embryonic stages of S. digitata; experiment: Externalization of phosphatidyl serine, Annexin-V-PE staining, flow cytometry; format: cell-based, Setaria digitata; details: for GMI (Geometric Mean Intensity) of Fluorescence, Annexin-V-PE Staining: 24 hr; for externalization of Phosphatidyl serine (result in words): Microfilariae and eggs, Annexin-V-PE staining
Experimental: Adult female filarial worms Setaria digitata were collected from the peritoneum of cattle, slaughtered at a nearby abattoir in sterile Hanks Balanced Salt Solution (HBSS) medium (Sigma H 2387-1L) and transported to the laboratory in a sterile container. The medium containing 1% glucose (Sigma G 7528), Penicillin 100 units/ml, Streptomycin 100 μg/ml (Sigma P 4333). And Amphotericin-B 0.25 μg/ml (Sigma A 2942) was buffered with NaHCO3 (Sigma S 5761). About 5 to 7 worms were taken in a petridish, washed three times in medium, dissected into small pieces in 10 ml of medium under sterile conditions and incubated at 37° C. for 30 minutes to allow the release of embryonic stages (eggs and microfilariae) into the medium. The embryonic stages were harvested into sterile 15 ml. centrifuge tubes and washed three times by centrifuging at 300 g for 10 minutes each with medium and the final pellet was suspended in 1 ml. of RPMI-1640 medium (Sigma R 8005) supplemented with 10% FBS (Sigma F 2442) The number of embryonic stages of S. digitata in the above preparation were counted using light microscope, and the suspension was taken in RPMI-1640 medium containing 10% FBS at 1×10^5 embryonic stages/ml. One ml. each was dispensed into individual wells of a 24 well tissue culture plate. One set of wells was taken as untreated control containing only medium with 10% FBS. […] Motility of the Mf was scored under an inverted microscope. After appropriate treatment and incubation, each set of the cultured embryonic stages of S. digitata were harvested from the 24 well tissue culture plate separately in 15 ml. sterile centrifuge tubes, washed with PBS twice and stained as per requirement following manufacturer's instructions as described below. This was followed by two times washing with PBS and final suspension of the stained embryonic stages was taken in 0.5 ml of sheath fluid (BD Biosciences 342003) before their acquisition in the flow cytometer (BD FACS Calibur, Becten and Dickinson, USA). Analysis was performed on 10,000-acquired events depicted as Dot Plots and Histogram Plots using Cellquest Pro soft ware. All plots were representative of at least 3 experiments. The distinctly clustered populations obtained consistently in the Dot plots for the intra uterine embryonic stages of S. digitata (FIG. 1 a) were gated for Mfs (R-1) and eggs (R-2 and R-3) and analyzed for different assays for apoptosis as described below. The externalization of phosphatidyl serine was detected by staining the embryonic stages with Annexin-V-PE (BD Biosciences 556421) as per the instructions of the manufacturer. Briefly, the embryonic stages of S. digitata were subjected to various treatments in culture for 24 hrs. After the said period of incubation the embryonic stages were harvested, washed with ice cold PBS twice and resuspended in 100 μl of 1× Annexin-V binding buffer (BD Biosciences 556454) at 1×10^5 embryonic stages per ml. to which 5 μl of Annexin-V-PE was added. After 15 minutes of Incubation in dark at room temperature another 400 μl of 1× Annexin-V binding buffer was added to the above suspension. The resulting 500 μl suspension of Annexin-V-PE stained embryonic stages was then acquired and analyzed by flow cytometer.

| Structure (SMILES) | GMI (Geometric Mean Intensity) of Fluorescence, CED-3 Expression ([1]; Eggs, 10 μM) | GMI (Geometric Mean Intensity) of Fluorescence, CED-3 Expression ([1]; Microfilariae, 10 μM) | GMI (Geometric Mean Intensity) of Fluorescence, Annexin-V-PE Staining ([2]; Eggs, 10 μM) | externalization of Phosphatidyl serine (result in words) [2] | GMI (Geometric Mean Intensity) of Fluorescence, Annexin-V-PE Staining ([2]; Microfilariae, 10 μM) | GMI (Geometric Mean Intensity) of Fluorescence, CED-3 Expression ([1]; Eggs, 1 μM) | GMI (Geometric Mean Intensity) of Fluorescence, CED-3 Expression ([1]; Microfilariae, 1 μM) | GMI (Geometric Mean Intensity) of Fluorescence, Annexin-V-PE Staining ([2]; Eggs, 1 μM) | GMI (Geometric Mean Intensity) of Fluorescence, Annexin-V-PE Staining ([2]; Microfilariae, 1 μM) |
| --- | --- | --- | --- | --- | --- | --- | --- | --- | --- |
| OO [H2O2] | 98.25 and 100.22 and 97.56 | 10.99 and 12.38 and 9.95 | 30.95 and 33.55 and 35.75 | dose dependent externalization of Phosphatidyl serine was observed | 9.75 and 11.02 and 10.35 |  |  |  |  |
| CC1=CC(=O)c2c(O)cccc2C1=O [Plumbagin] | 205.26 and 207.37 and 200.17 | 32.75 and 34.96 and 31.33 | 81.25 and 85.22 and 89.36 | dose dependent externalization of Phosphatidyl serine was observed | 11.95 and 12.52 and 13.56 |  |  |  |  |
| CN[C@@H]1C[C@H]2O[C@@](C)([C@@H]1OC)n1c3ccccc3c3c4c(c5c6ccccc6n2c5c31)C(=O)NC4 [Staurosporine] |  |  |  | did not mediate such effects on Phosphatidyl serine externalization |  | 92.71 and 96.07 and 90.32 | 8.33 and 8.10 and 7.39 | 27.59 and 28.53 and 30.63 | 7.24 and 8.03 and 8.52 |
